Patent US20090149482A1, “STEREOCHEMICALLY DEFINED DIPEPTIDE ESTERS OF ANTIVIRAL AGENTS FOR ENHANCED OCULAR TREATMENT” (priority 2001, published 2009)
“And” between values parts separate entries of the source, which are not always exact repeats. Identical values can stand only once. Like-named read-outs stand apart in the source and are kept apart here.

Legend:
VZV = assay: In vitro antiviral screening, CPE inhibition in HFF cells; assay type: cell-based, varicella zoster virus; settings: VZV, CPE Inhibition
HCMV = assay: as above; assay type: cell-based, human cytomegalovirus; settings: for EC50: HCMV, CPE Inhibition
EBV = assay: In vitro antiviral screening, VCA Elisa; assay type: cell-based, epstein-barr virus; settings: for EC50: EBV, VCA Elisa
HSV-2 = assay: In vitro antiviral screening, CPE inhibition in HFF cells; assay type: cell-based, herpes simplex virus 2; settings: for EC50: HSV-2, CPE Inhibition
[1] = test system: rabbit corneal cell line (SIRC); settings: SIRC cells
hPEPT1 = target: T1, hPEPT1 (Homo sapiens, UniProt P46059); assay: [3H] Glycylsarcosine uptake and its inhibition in Caco-2 cells (affinity towards peptide transporter); assay type: cell-based
T1 construct: endogenous in cells; host or cells: Caco-2 (human colon carcinoma, ATCC)
T1 sequence (P46059 1-708): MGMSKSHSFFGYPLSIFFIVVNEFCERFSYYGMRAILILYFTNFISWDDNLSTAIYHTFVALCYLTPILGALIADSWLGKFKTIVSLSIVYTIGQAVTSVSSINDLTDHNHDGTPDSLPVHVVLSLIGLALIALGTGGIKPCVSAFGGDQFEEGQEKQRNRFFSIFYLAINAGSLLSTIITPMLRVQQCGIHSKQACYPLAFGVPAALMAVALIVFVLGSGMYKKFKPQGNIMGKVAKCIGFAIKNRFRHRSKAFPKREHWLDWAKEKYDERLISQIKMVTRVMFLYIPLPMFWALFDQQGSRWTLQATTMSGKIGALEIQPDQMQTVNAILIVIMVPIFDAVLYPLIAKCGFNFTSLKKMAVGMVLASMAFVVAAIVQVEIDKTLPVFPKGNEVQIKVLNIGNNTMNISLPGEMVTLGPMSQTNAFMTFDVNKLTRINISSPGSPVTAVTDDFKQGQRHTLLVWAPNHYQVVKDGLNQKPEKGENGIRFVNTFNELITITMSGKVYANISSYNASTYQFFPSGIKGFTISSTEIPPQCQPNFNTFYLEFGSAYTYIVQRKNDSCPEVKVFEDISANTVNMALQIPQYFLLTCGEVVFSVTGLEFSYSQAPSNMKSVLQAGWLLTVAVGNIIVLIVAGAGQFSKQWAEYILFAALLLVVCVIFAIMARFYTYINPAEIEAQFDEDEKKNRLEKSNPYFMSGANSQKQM

[2] = for first order hydrolytic rate constant k: 37° C.
[3] = test system: oligopeptide transporter on the rabbit cornea
Caco-2 cell suspension = settings: Caco-2, pH 7.4
[4] = pH 1.2, * = no measurable degradation during 7 day experiment
[5] = pH 2.6, * = no measurable degradation during 7 day experiment

**Q.** With `CC(C)[C@H](N)C(=O)OCCOCn1cnc2c(=O)[nH]c(N)nc21` [Val-ACV, L-Valine-acyclovir] as the molecule, how does the EC50 (VZV; Human alphaherpesvirus 3, HFF) read?
**A.** < 0.08 µM

**Q.** What about the “SI (Selectivity Index) = CC50/EC50” value (HCMV) of the same molecule?
**A.** SI > 9

**Q.** What about the EC50 (HCMV; Human betaherpesvirus 5, HFF) of the same molecule?
**A.** 30.8 µM

**Q.** What about the “SI (Selectivity Index) = CC50/EC50” value (EBV) of the same molecule?
**A.** SI > 250

**Q.** What about the EC50 (EBV; human gammaherpesvirus 4) of the same molecule?
**A.** 0.55 µM

**Q.** And the “SI (Selectivity Index) = CC50/EC50” value (HSV-2)?
**A.** SI > 35.7

**Q.** What about the EC50 (HSV-2; Human alphaherpesvirus 2, HFF) of the same molecule?
**A.** 7.77 µM

**Q.** What about the “% viable cells” value ([1]; 5 mM) of the same molecule?
**A.** 89.3±5.1%

**Q.** What about the Ki (hPEPT1) of the same molecule?
**A.** 1410 ± 560 µM

**Q.** And the “Vmax of Gly-Sar uptake in presence of the drug” value (hPEPT1)?
**A.** 0.081 ± 0.09 µmol/min/mg

**Q.** What about the “first order hydrolytic rate constant k” value [2, 4] of the same molecule?
**A.** 1.22 k × 10^3 min^−1

**Q.** And the “first order hydrolytic rate constant k” value [2, 5]?
**A.** 0.41 k × 10^3 min^−1

**Q.** And the “first order hydrolytic rate constant k” value ([2]; pH 4.2, * = no measurable degradation during 7 day experiment)?
**A.** 0.008 k × 10^3 min^−1

**Q.** What about the “first order hydrolytic rate constant k” value ([2]; pH 5.6, * = no measurable degradation during 7 day experiment) of the same molecule?
**A.** 0.16 k × 10^3 min^−1

**Q.** And the “first order hydrolytic rate constant k” value ([2]; pH 7.4)?
**A.** 0.67 k × 10^3 min^−1

**Q.** And the “first order hydrolytic rate constant k” value ([2]; pH 9.0)?
**A.** 1.63 k × 10^3 min^−1

**Q.** What about the “hydrolytic rate constant k” value (Aqueous Humor) of the same molecule?
**A.** 21.8 (±1.2) k × 10^3 min^−1 mg^−1 protein

**Q.** And the “hydrolytic rate constant k” value (Cornea homogenate)?
**A.** 8.1 (±1.2) k × 10^3 min^−1 mg^−1 protein

**Q.** What about the “hydrolytic rate constant k” value (Iris-Ciliary Body homogenate) of the same molecule?
**A.** 283.1 (±19.7) k × 10^3 min^−1 mg^−1 protein

**Q.** What about the “hydrolytic rate constant k” value (Lens homogenate) of the same molecule?
**A.** 10.1 (±0.3) k × 10^3 min^−1 mg^−1 protein

**Q.** And the “hydrolytic rate constant k” value (Vitreous Humor)?
**A.** 7.1 (±0.9) k × 10^3 min^−1 mg^−1 protein

**Q.** What about the “Papp (% Control) of [3H] Val-ACV” value [3] of the same molecule?
**A.** 20.1 (±6.7) % Control

**Q.** What about the “10^2 × kobs” value (Caco-2 cell suspension; human) of the same molecule?
**A.** 0.56 ± 0.038 min^−1mg^−1 protein

**Q.** Which results are given for `CC(C)C(N)C(=O)NC(C(=O)OCCOCn1cnc2c(=O)[nH]c(N)nc21)C(C)C` (stereo not drawn) [Val-Val-ACV, Val-Valacyclovir]?
**A.** EC50 (VZV): 0.09 µM; EC50 (HCMV): > 186 µM; EC50 (EBV): 93.1 µM; EC50 (HSV-2): 22.7 µM; percent survival ([1]; 0.25 mM): 86.3%; percent survival ([1]; 0.5 mM): 85.8%; percent survival ([1]; 1 mM): 87.0%; percent survival ([1]; 2 mM): 87.0%; % viable cells ([1]; 5 mM): 90.1±4.6%; percent survival ([1]; 5 mM): 99.3%; percent survival ([1]; 10 mM): 54.03%; Vmax of Gly-Sar uptake in presence of the drug (hPEPT1): 0.099 ± 0.10 µmol/min/mg; IC50 (hPEPT1; read-out: IC50 of inhibition of [3H] Gly-Sar uptake): 3460 ± 210 µM; Ki (hPEPT1; read-out: Ki): 1940 µM and 1890 µM and 2510 µM; first order hydrolytic rate constant k [2, 4]: 0.0062 k × 10^3 min^−1; first order hydrolytic rate constant k [2, 5]: 0.0051 k × 10^3 min^−1; stability as an ophthalmic solution ([2]; pH 5.6, concluded from rate constants): stable for two years; first order hydrolytic rate constant k ([2]; pH 7.4): 0.107 k × 10^3 min^−1; first order hydrolytic rate constant k ([2]; pH 9.0): 0.24 k × 10^3 min^−1; t1/2 (rabbit, tissue homogenate): 84 min; Papp (% Control) of [3H] Val-ACV [3]: 18.6 (±8.9) % Control; 10^2 × kobs (Caco-2 cell suspension): 2.14 ± 0.44 min^−1mg^−1 protein; t1/2 (Caco-2 cell suspension; human): 33.2 ± 6.9 min
